Measurements published in PubChem BioAssay (NCI).
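These data come from cells grown in 96-well plates and exposed to compound for 48 hours at five concentrations. GI50 is the concentration that inhibits growth by half. Definition used: TGI = concentration required for complete inhibition of growth.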

Experiments:
Test in all cases: NCI-60 cell line screen, 48 h
[1] = tested on: ACHN renal
[2] = tested on: K-562 leukemia
[3] = tested on: SF-539 CNS
[4] = tested on: SF-295 CNS
[5] = tested on: U251 CNS
[6] = tested on: NCI-H522 lung
[7] = tested on: HOP-62 NSCLC
[8] = tested on: HOP-92 NSCLC
[9] = tested on: OVCAR-5 ovarian
[10] = tested on: CCRF-CEM leukemia

| SMILES | GI50 [1] [µM] | TGI [1] [µM] | GI50 [2] [µM] | TGI [2] [µM] | GI50 [3] [µM] | TGI [3] [µM] | GI50 [4] [µM] | TGI [4] [µM] | GI50 [5] [µM] | TGI [5] [µM] | GI50 [6] [µM] | TGI [6] [µM] | GI50 [7] [µM] | TGI [7] [µM] | GI50 [8] [µM] | TGI [8] [µM] | GI50 [9] [µM] | TGI [9] [µM] | GI50 [10] [µM] | TGI [10] [µM] |
| --- | --- | --- | --- | --- | --- | --- | --- | --- | --- | --- | --- | --- | --- | --- | --- | --- | --- | --- | --- | --- |
| NCCSC(C[N+](=O)[O-])c1ccccc1Cl (centres undefined) | 9.85 | 22.1 | 2.96 | > 23.7 | 2.42 | 5.49 | 1.5 | 3.83 | 1.85 | 3.81 | 24.9 | > 56.1 | 8.09 | 23.1 | 12.5 | 47.2 | 4.66 | 10.4 | 3.8 | > 86.7 |
| CC(C)=CCc1cc(C2COc3cc4c(c(O)c3C2=O)C=CC(C)(C)O4)c(O)cc1O (centres undefined) | – | 32.4 | – | 10.7 | – | 34.3 | – | 43.5 | – | 35.7 | – | 25.9 | – | 32.3 | – | 33.1 | – | 29.7 | – | 28.7 |
| O=c1[nH]nc(-c2ccccc2)c2c(-c3ccccc3)onc12 | 3.38 | > 100 | 0.385 | > 100 | 0.351 | 1.79 | 0.72 | > 100 | 0.517 | > 100 | 0.648 | 24.3 | – | > 100 | 0.933 | > 58.3 | > 62.8 | > 100 | 3.69 | > 100 |
| CCc1c2c(nc3ccc(OCc4ccc(B5OC(C)(C)C(C)(C)O5)cc4)cc13)-c1cc3c(c(=O)n1C2)COC(=O)[C@]3(O)CC | 0.0278 | 2.07 | 0.0562 | > 100 | < 0.0109 | 0.131 | – | – | < 0.01 | – | 0.0204 | > 100 | < 0.01 | – | 0.0378 | 0.963 | 0.215 | > 100 | < 0.01 | > 100 |
| CN(C)N=Nc1nn(C(=O)Nc2ccc(Cc3ccccc3)cc2)c2ccccc12 | 0.282 | > 100 | 0.0373 | > 100 | 1.46 | > 23.7 | 0.225 | 3.12 | – | > 100 | 1.9 | > 100 | > 100 | > 100 | 6.47 | > 100 | > 21.6 | > 100 | 4.42 | > 100 |
| Cc1ccc([N+](=O)[O-])c2c(NCCC[N+](C)(C)[O-])ccnc12 | – | > 100 | – | > 100 | – | > 100 | – | > 100 | – | > 100 | – | 32.6 | – | > 100 | – | > 100 | – | 84.3 | – | > 100 |
| NS(=O)(=O)c1ccc(NC(=O)c2cccc3c(Nc4ccc(S(N)(=O)=O)cc4)c4ccccc4nc23)cc1 | – | > 100 | – | 82.1 | – | > 100 | – | > 100 | – | > 100 | – | 49.9 | – | > 100 | – | > 100 | – | > 100 | – | 87.6 |
